Experimental data published in patent publication US12439925B2, “Anti-pathogenic activity of a bifunctional peptidoglycan/chitin hydrolase” (Universiteit Antwerpen, priority 2018, dated 2025).
“Also recorded” adds a separate entry of the source. Read-outs that look alike come from different tables or passages of the source.

Tests used:
C. albicans = type: cell-based, Candida albicans; conditions: for effect of acids on hyphal formation in C. albicans: compared with lactic acid
Procedure: (§1) Candida (albicans, dubliensis, and tropicalis) hyphae were induced by incubating 10^6 CFU/ml cells with 10% FCS, for 3 h at 37° C. in the wells of a 24-well plate, in a total volume of 500 μl per repetition and 4 biological repetitions per condition. To investigate the effect of lactobacilli 10^8 CFU/ml L. rhamnosus strains were added to the wells and co-incubated. To investigate the effect of Msp1, 5 μg/ml or 10 μg/ml of purified Msp1 from L. rhamnosus GG or L. rhamnosus GR-1 was added to the wells and co-incubated. To investigate the effect of acids, 100 μl of a 1% lactic acid or 1% butyric acid was added to the wells and co-incubated. After (co-) incubation for 3 h, at least 100 yeast cells and/or hyphae were counted in each well (4 per condition) and the ratio of hyphae to yeast cells was calculated.

C. albicans biofilms = assay: Inhibition of C. albicans biofilm formation (XTT, absorbance 492 nm); type: cell-based, Candida albicans; conditions: 24 h
Procedure: The inhibiting effects on C. albicans biofilms were assessed. Briefly, C. albicans was grown overnight in YPD medium and suspended to 10^6 CFU/ml and added to the wells of a 96 well plate (80 μl/well), together with the samples (supernatant, lactic acid, Msp1) or controls (MRS or H20). After incubation for 24 h at 37° C., the biofilms were washed twice and then 2,3-bis (2-methoxy-4- nitro-5-sulfophenyl)-2H-tetrazolium-5-carboxanilide (90 μl, 1 mg/ml) (Sigma Aldrich) and phenazine methosulphate (10 μl, 0.2 mg/ml) (Sigma Aldrich) were added to the wells. After a second incubation (37° C., 30 minutes, in the dark), the absorbance at 492 nm was measured using a Synergy™ HTX multi-mode reader (Biotek, Drogenbos, Belgium).

[1] = Chitinase activity based on breakdown of chitin-azure; type: biochemical; conditions: compared with commercial chitinase from Streptomyces griseus; sodium acetate buffer control
Procedure: First, the chitinase activity of Msp1 was investigated based on breakdown of chitin-azure (Sigma), as described previously. Further confirmation was based on inhibition of chitinase activity by 2.5 mM Bisdionine C (Sigma), as described previously.

C. tropicalis = assay: Inhibition of FCS-induced hyphal formation in C. tropicalis; type: cell-based, Candida tropicalis; conditions: different concentrations of Msp1
Procedure: as §1

C. dubliensis = assay: Inhibition of FCS-induced hyphal formation in C. dubliensis; type: cell-based, Candida dubliensis; conditions: different concentrations of Msp1
Procedure: as §1

Cn1cnc2c1c(=O)n(CCCn1c(=O)c3c(ncn3C)n(C)c1=O)c(=O)n2C [Bisdionine C]
rescue of C. albicans hyphal morphogenesis from Msp1 inhibition (C. albicans; 2.5 mM Bisdionine C in the presence of Msp1): partially reversed; also recorded: can prevent hyphal inhibition partially

CCCC(=O)O [Butyric acid, butyric acid]
effect of acids on hyphal formation in C. albicans (C. albicans): comparable effects

CC(O)C(=O)O (centres unmarked) [Lactic acid, lactic acid]
reduction of hyphal morphogenesis (C. albicans; 0.5-2% lactic acid, D- and L-lactic acid 1:1): reduced hyphal morphogenesis | reduction of hyphal morphogenesis (C. albicans; 1% lactic acid (D- and L-lactic acid 1:1)): approximately 50% | anti-biofilm activity on C. albicans (C. albicans biofilms; lactic acid 0.4%): showed anti-biofilm activity

Cl [hydrochloric acid]
effect of acids on hyphal formation in C. albicans (C. albicans): inhibited hyphae formation significantly

B1: Msp1: bifunctional peptidoglycan/chitin hydrolase, major secreted protein 1, purified from L. rhamnosus GG supernatant (protein)
chain: MVDSKKVLSVTAGFVGAAGLAALATGANTVSASTGTVSYKSGATTVWNSPSWHQVKRYVTFGDTVQLLGKTVDQNGATWYKVGDNQWIPELYLNVAGKTATVETPSSAASQTAVSQAPASQAPTSQAPATQTPAAPQTDTQTANTQLYVKNIGSAVTVWTTPAYTHATGQYLEGSQTLTAVAQQQANGETWYRLANGGYVPARFVSTTPVAVTPQPAAPQSNEASVASTNTNAANDSAAASSAAASQAAASSAAASTAAANAAVASANATASQAAASEAAASQAAASQAAASQAAASQAAASQAAASQAAASQAAASQAAASQAAASQAAANAAQQAPANQANVTTTQVNANQAQQQTATATPAVNTSNQTAAVSASRQAKIQAVIAIAEQQVGKPYVWGGKGPNSFDCSGLMYYAFLNGAGVNIGGWTVPQESSGTQVSLSALQPGDLLFWGSHGSTYHVALYIGGGTMIQAPQPGENVKYTALAYFMPDFAVRPSL
modifications: Msp1 protein
notes: bifunctional peptidoglycan/chitin hydrolase, major secreted protein 1, purified from L. rhamnosus GG supernatant
breakdown of chitin (chitin-azure) [1]: able to break down chitin, to the same extent as a commercially available chitinase; also recorded: can break down chitin derivative, chitin-azure | effect on FCS-induced hyphal formation in C. tropicalis (C. tropicalis): concentration-dependent effect | reduction of hyphal morphogenesis (C. albicans; concentrations as low as 5 μg/mL): more than 50% | anti-biofilm activity on C. albicans (C. albicans biofilms; Msp1 10 μg/mL): showed anti-biofilm activity | effect on FCS-induced hyphal formation in C. dubliensis (C. dubliensis): concentration-dependent effect
